Results taken from patent US20240124444A1 (Celgene Corporation, priority 2020, published 2024).

System: C. parvum strain UGA1
Test: C. parvum growth inhibition assay (Nluc luminescence in HCT-8 cells)
Assay type: cell-based, Cryptosporidium parvum
Conditions: Cryptosporidium parvum, HCT-8; for inhibition at 1 µM: single point inhibition at 1 uM, read-out: % inh @ 1 uM C. parvum; for inhibition at 10 µM: single point inhibition at 10 uM, read-out: % inh @ 10 uM C. parvum

Cc1cc(-c2cc3cnc(NC(=O)c4cccc5c4cnn5C)cc3[nH]2)ccn1 [Example 288, 1-methyl-N-(2-(2-methylpyridin-4-yl)-1H-pyrrolo[3,2-c]pyridin-6-yl)-1H-indazole-4-carboxamide]
inhibition at 1 µM: 0 to 33% | inhibition at 10 µM: 0 to 33%

Cc1cc(-c2cc3cnc(NC(=O)c4cccc5[nH]ncc45)cc3[nH]2)ccn1 [Example 289, N-(2-(2-methylpyridin-4-yl)-1H-pyrrolo[3,2-c]pyridin-6-yl)-1H-indazole-4-carboxamide]
inhibition at 1 µM: 0 to 33% | inhibition at 10 µM: 0 to 33%

Cc1cc(-c2cc3cnc(NC(=O)c4ncoc4C)cc3[nH]2)ccn1 [Example 290, 5-methyl-N-(2-(2-methylpyridin-4-yl)-1H-pyrrolo[3,2-c]pyridin-6-yl)oxazole-4-carboxamide]
inhibition at 1 µM: 0 to 33% | inhibition at 10 µM: 0 to 33%

Cc1cc(-c2cc3cnc(NC(=O)N(C)C)cc3[nH]2)ccn1 [Example 291, 1,1-dimethyl-3-(2-(2-methylpyridin-4-yl)-1H-pyrrolo[3,2-c]pyridin-6-yl)urea]
inhibition at 1 µM: 0 to 33% | inhibition at 10 µM: 0 to 33%

COc1nccc(-c2cc3cnc(NC(=O)c4cc(C)n(C)n4)cc3[nH]2)n1 [Example 292, N-(2-(2-methoxypyrimidin-4-yl)-1H-pyrrolo[3,2-c]pyridin-6-yl)-1,5-dimethyl-1H-pyrazole-3-carboxamide]
inhibition at 1 µM: 0 to 33% | inhibition at 10 µM: 0 to 33%

CCOc1nccc(-c2cc3cnc(NC(=O)c4cnn(C)c4)cc3[nH]2)n1 [Example 293, N-(2-(2-ethoxypyrimidin-4-yl)-1H-pyrrolo[3,2-c]pyridin-6-yl)-1-methyl-1H-pyrazole-4-carboxamide]
inhibition at 1 µM: 0 to 33% | inhibition at 10 µM: 0 to 33%

Cc1cc(-c2cc3cnc(NC(=O)c4cc(C(F)(F)F)n(C)n4)cc3[nH]2)ccn1 [Example 294, 1-methyl-N-(2-(2-methylpyridin-4-yl)-1H-pyrrolo[3,2-c]pyridin-6-yl)-5-(trifluoromethyl)-1H-pyrazole-3-carboxamide]
inhibition at 1 µM: 0 to 33% | inhibition at 10 µM: 0 to 33%

COCCOc1ccc(C(=O)Nc2cc3[nH]c(-c4ccnc(C)c4)cc3cn2)cc1OC [Example 295, 3-methoxy-4-(2-methoxyethoxy)-N-(2-(2-methylpyridin-4-yl)-1H-pyrrolo[3,2-c]pyridin-6-yl)benzamide]
inhibition at 1 µM: 0 to 33% | inhibition at 10 µM: 0 to 33%

COc1ccc(C(=O)Nc2cc3[nH]c(-c4ccnc(C)c4)cc3cn2)cc1OC [Example 296, 3,4-dimethoxy-N-(2-(2-methylpyridin-4-yl)-1H-pyrrolo[3,2-c]pyridin-6-yl)benzamide]
inhibition at 1 µM: 0 to 33% | inhibition at 10 µM: 0 to 33%

COc1nccc(-c2cc3cnc(NC(=O)C(C)(C)C)cc3[nH]2)n1 [Example 297, N-(2-(2-methoxypyrimidin-4-yl)-1H-pyrrolo[3,2-c]pyridin-6-yl)pivalamide]
inhibition at 1 µM: 0 to 33% | inhibition at 10 µM: 0 to 33%

Cc1cc(-c2cc3cnc(NC(=O)C45CC(C4)C5)cc3[nH]2)ccn1 [Example 298, N-(2-(2-methylpyridin-4-yl)-1H-pyrrolo[3,2-c]pyridin-6-yl)bicyclo[1.1.1]pentane-1-carboxamide]
inhibition at 1 µM: 0 to 33% | inhibition at 10 µM: 0 to 33%

Cn1cc(C(=O)Nc2cc3[nH]c(-c4cc(C(F)(F)F)ccn4)cc3cn2)cn1 [Example 299, 1-methyl-N-(2-(4-(trifluoromethyl)pyridin-2-yl)-1H-pyrrolo[3,2-c]pyridin-6-yl)-1H-pyrazole-4-carboxamide]
inhibition at 1 µM: 0 to 33% | inhibition at 10 µM: 0 to 33%

Cn1cc(C(=O)Nc2cc3[nH]c(-c4cc(C#N)ccn4)cc3cn2)cn1 [Example 300, N-(2-(4-cyanopyridin-2-yl)-1H-pyrrolo[3,2-c]pyridin-6-yl)-1-methyl-1H-pyrazole-4-carboxamide]
inhibition at 1 µM: 0 to 33% | inhibition at 10 µM: 0 to 33%

Cc1cc(-c2cc3cnc(NC(=O)C(C)(C)C)cc3[nH]2)ccn1 [Example 301, N-(2-(2-methylpyridin-4-yl)-1H-pyrrolo[3,2-c]pyridin-6-yl)pivalamide]
inhibition at 1 µM: 0 to 33% | inhibition at 10 µM: 0 to 33%

Cn1c(-c2ccnc(C(F)(F)F)n2)cc2cnc(NC(=O)C3CC3)cc21 [Example 302, N-(1-methyl-2-(2-(trifluoromethyl)pyrimidin-4-yl)-1H-pyrrolo[3,2-c]pyridin-6-yl)cyclopropanecarboxamide]
inhibition at 1 µM: 0 to 33% | inhibition at 10 µM: 0 to 33%

Cn1cc(C(=O)Nc2cc3[nH]c(-c4cnc(C#N)cn4)cc3cn2)cn1 [Example 303, N-(2-(5-cyanopyrazin-2-yl)-1H-pyrrolo[3,2-c]pyridin-6-yl)-1-methyl-1H-pyrazole-4-carboxamide]
inhibition at 1 µM: 0 to 33% | inhibition at 10 µM: 0 to 33%

Cn1cc(C(=O)Nc2cc3[nH]c(-c4cnc(C(F)(F)F)cn4)cc3cn2)cn1 [Example 304, 1-methyl-N-(2-(5-(trifluoromethyl)pyrazin-2-yl)-1H-pyrrolo[3,2-c]pyridin-6-yl)-1H-pyrazole-4-carboxamide]
inhibition at 1 µM: 33 to 66% | inhibition at 10 µM: 0 to 33%

Cc1cc(C(=O)Nc2cc3[nH]c(-c4ccnc(NCC(F)(F)F)c4)cc3cn2)nn1C [Example 305, 1,5-dimethyl-N-(2-(2-(2,2,2-trifluoroethylamino)pyridin-4-yl)-1H-pyrrolo[3,2-c]pyridin-6-yl)-1H-pyrazole-3-carboxamide]
inhibition at 1 µM: 0 to 33% | inhibition at 10 µM: 0 to 33%

Cn1cc(C(=O)Nc2cc3[nH]c(-c4ccc(C(F)(F)F)nc4)cc3cn2)cn1 [Example 306, 1-methyl-N-(2-(6-(trifluoromethyl)pyridin-3-yl)-1H-pyrrolo[3,2-c]pyridin-6-yl)-1H-pyrazole-4-carboxamide]
inhibition at 1 µM: 0 to 33% | inhibition at 10 µM: 0 to 33%

Cn1cc(C(=O)Nc2cc3[nH]c(-c4ccnc(OCC(F)(F)F)n4)cc3cn2)cn1 [Example 308, 1-methyl-N-(2-(2-(2,2,2-trifluoroethoxy)pyrimidin-4-yl)-1H-pyrrolo[3,2-c]pyridin-6-yl)-1H-pyrazole-4-carboxamide]
inhibition at 1 µM: 0 to 33% | inhibition at 10 µM: 0 to 33%

COc1nccc(-c2cc3cnc(NC(=O)c4cnn(C(C)C)c4)cc3n2C)n1 [Example 309, 1-isopropyl-N-(2-(2-methoxypyrimidin-4-yl)-1-methyl-1H-pyrrolo[3,2-c]pyridin-6-yl)-1H-pyrazole-4-carboxamide]
inhibition at 1 µM: 0 to 33% | inhibition at 10 µM: 0 to 33%

Cn1cc(C(=O)Nc2cc3[nH]c(-c4ccnc(OCC(F)F)n4)cc3cn2)cn1 [Example 310, N-(2-(2-(2,2-difluoroethoxy)pyrimidin-4-yl)-1H-pyrrolo[3,2-c]pyridin-6-yl)-1-methyl-1H-pyrazole-4-carboxamide]
inhibition at 1 µM: 0 to 33% | inhibition at 10 µM: 0 to 33%

CC(C)COc1nccc(-c2cc3cnc(NC(=O)c4cnn(C)c4)cc3[nH]2)n1 [Example 311, N-(2-(2-isobutoxypyrimidin-4-yl)-1H-pyrrolo[3,2-c]pyridin-6-yl)-1-methyl-1H-pyrazole-4-carboxamide]
inhibition at 1 µM: 0 to 33% | inhibition at 10 µM: 0 to 33%

CCCOc1nccc(-c2cc3cnc(NC(=O)c4cnn(C)c4)cc3[nH]2)n1 [Example 312, 1-methyl-N-(2-(2-propoxypyrimidin-4-yl)-1H-pyrrolo[3,2-c]pyridin-6-yl)-1H-pyrazole-4-carboxamide]
inhibition at 1 µM: 0 to 33% | inhibition at 10 µM: 0 to 33%

Cn1cc(C(=O)Nc2cc3[nH]c(-c4ccnc(OCC5CCC5)n4)cc3cn2)cn1 [Example 313, N-(2-(2-(cyclobutylmethoxy)pyrimidin-4-yl)-1H-pyrrolo[3,2-c]pyridin-6-yl)-1-methyl-1H-pyrazole-4-carboxamide]
inhibition at 1 µM: 0 to 33% | inhibition at 10 µM: 0 to 33%

COc1nc(C)cc(-c2cc3cnc(NC(=O)c4cnn(C)c4)cc3[nH]2)n1 [Example 315, N-(2-(2-methoxy-6-methylpyrimidin-4-yl)-1H-pyrrolo[3,2-c]pyridin-6-yl)-1-methyl-1H-pyrazole-4-carboxamide]
inhibition at 1 µM: 0 to 33% | inhibition at 10 µM: 0 to 33%

CCOc1nccc(-c2cc3cnc(NC(=O)c4cnn(C)c4)cc3n2CC(C)C)n1 [Example 316, N-(2-(2-ethoxypyrimidin-4-yl)-1-isobutyl-1H-pyrrolo[3,2-c]pyridin-6-yl)-1-methyl-1H-pyrazole-4-carboxamide]
inhibition at 1 µM: 0 to 33% | inhibition at 10 µM: 0 to 33%

Cc1nn(C)cc1C(=O)Nc1cc2[nH]c(-c3ccnc(OCC(F)F)n3)cc2cn1 [Example 317, N-(2-(2-(2,2-difluoroethoxy)pyrimidin-4-yl)-1H-pyrrolo[3,2-c]pyridin-6-yl)-1,3-dimethyl-1H-pyrazole-4-carboxamide]
inhibition at 1 µM: 0 to 33% | inhibition at 10 µM: 0 to 33%

CCn1cc(C(=O)Nc2cc3[nH]c(-c4ccnc(OCC(F)F)n4)cc3cn2)c(C)n1 [Example 318]
inhibition at 1 µM: 0 to 33% | inhibition at 10 µM: 0 to 33%

Cn1cc(C(=O)Nc2cc3[nH]c(-c4ccnc(OCC(C)(C)C)n4)cc3cn2)cn1 [Example 319, 1-methyl-N-(2-(2-(neopentyloxy)pyrimidin-4-yl)-1H-pyrrolo[3,2-c]pyridin-6-yl)-1H-pyrazole-4-carboxamide]
inhibition at 1 µM: 0 to 33% | inhibition at 10 µM: 0 to 33%

COc1nccc(-c2cc3cnc(NC(=O)c4ccc(N5CCOCC5)cc4)cc3[nH]2)n1 [Example 320, N-(2-(2-methoxypyrimidin-4-yl)-1H-pyrrolo[3,2-c]pyridin-6-yl)-4-morpholinobenzamide]
inhibition at 1 µM: 0 to 33% | inhibition at 10 µM: 0 to 33%

CCOc1nccc(-c2cc3cnc(NC(=O)c4ccc(OC)c(OC)c4)cc3[nH]2)n1 [Example 321, N-(2-(2-ethoxypyrimidin-4-yl)-1H-pyrrolo[3,2-c]pyridin-6-yl)-3,4-dimethoxybenzamide]
inhibition at 1 µM: 0 to 33% | inhibition at 10 µM: 0 to 33%

O=C(Nc1cc2[nH]c(-c3ccnc(OCC(F)F)n3)cc2cn1)c1cnn([C@H]2CC[C@@H](O)CC2)c1 [Example 323, N-(2-(2-(2,2-difluoroethoxy)pyrimidin-4-yl)-1H-pyrrolo[3,2-c]pyridin-6-yl)-1-((1s,4s)-4-hydroxycyclohexyl)-1H-pyrazole-4-carboxamide]
inhibition at 1 µM: 0 to 33% | inhibition at 10 µM: 0 to 33%
